According to patent publication US20240228535A1 (priority 2022, published 2024):

Target: SARS2 coronavirus 3CL protease (Severe acute respiratory syndrome coronavirus 2, UniProt P0DTD1)
Experiment: biochemical
Conditions: 5 nM enzyme, 30 min pre-incubation with compound, 15 μM peptide substrate, 4 h at room temperature; read-out: FRET Potency (nM); IC50 values in the SARS2 3CLPro FRET assay

Question: Which IC50 does the source give for `CNC(=O)C(=O)[C@H](C[C@@H]1C[C@@H](C)NC1=O)NC(=O)c1cc(F)c(F)cc1NC(=O)OC` [Example 120, methyl N-[4,5-difluoro-2-[[(1S)-3-(methylamino)-1-[[(3S,5R)-5-methyl-2-oxo-pyrrolidin-3-yl]methyl]-2,3-dioxo-propyl]carbamoyl]phenyl] carbamate] here?
Answer: The IC50 was 11.1 nM.

Question: For `CNC(=O)C(=O)[C@H](C[C@@H]1C[C@@H](C)NC1=O)NC(=O)c1cc(F)ccc1NC(=O)OC1CC1` [Example 121, cyclopropyl N-[4-fluoro-2-[[(1S)-3-(methylamino)-1-[[(3S,5R)-5-methyl-2-oxo-pyrrolidin-3-yl]methyl]-2,3-dioxo-propyl]carbamoyl]phenyl] carbamate], which IC50 is on record?
Answer: The IC50 was 10.9 nM.

Question: `CNC(=O)C(=O)[C@H](C[C@@H]1C[C@@H](C)NC1=O)NC(=O)c1cc(Cl)ccc1NC(=O)C1CC1` [Example 122] was tested. Which IC50 did it give?
Answer: The IC50 was 8.1 nM.

Question: `COC(=O)Nc1ccc(Cl)cc1C(=O)N[C@@H](C[C@@H]1CCNC1=O)C(=O)C(=O)NC1CC1` [Example 123] was tested. Which IC50 did it give?
Answer: Its IC50 is 7.3 nM.

Question: How did the IC50 turn out when `[2H]C([2H])([2H])OC(=O)Nc1ccc(Cl)cc1C(=O)N[C@@H](C[C@@H]1CCNC1=O)C(=O)C(=O)NC1CC1` [Example 124, trideuteriomethyl N-[4-chloro-2-[[(1S)-3-(cyclopropylamino)-2,3-dioxo-1-[[(3S)-2-oxopyrrolidin-3-yl]methyl]propyl]carbamoyl]phenyl]carbamate] was run?
Answer: Its IC50 is 8.2 nM.

Question: With `CNC(=O)C(=O)[C@H](C[C@@H]1C[C@@H](C)NC1=O)NC(=O)c1cc(Cl)ccc1NC(=O)C(C)C` [Example 125, 5-chloro-N-[(1S)-3-(methylamino)-1-[[(3S,5R)-5-methyl-2-oxo-pyrrolidin-3-yl]methyl]-2,3-dioxo-propyl]-2-(2-methylpropanoylamino) benzamide] as the molecule, how does the IC50 read?
Answer: The IC50 was 5.6 nM.

Question: How did the IC50 turn out when `CNC(=O)C(=O)[C@H](C[C@@H]1CCNC1=O)NC(=O)c1cc(Cl)ccc1NC(=O)C(C)(C)C` [Example 126, 5-chloro-2-(2,2-dimethylpropanoylamino)-N-[(1S)-3-(methylamino)-2,3-dioxo-1-[[(3S)-2-oxopyrrolidin-3-yl]methyl]propyl]benzamide] was run?
Answer: Its IC50 is 3.8 nM.

Question: For `CNC(=O)C(=O)[C@H](C[C@@H]1CCNC1=O)NC(=O)c1cc(F)c(F)cc1NC(=O)OC1CC1` [Example 127, cyclopropyl N-[4,5-difluoro-2-[[(1S)-3-(methylamino)-2,3-dioxo-1-[[(3S)-2-oxopyrrolidin-3-yl]methyl]propyl]carbamoyl]phenyl]carbamate], which IC50 is on record?
Answer: The IC50 was 7.9 nM.

Question: Which IC50 does the source give for `CNC(=O)C(=O)[C@H](C[C@@H]1CCNC1=O)NC(=O)c1cc(Cl)ccc1NC(=O)OC(C)C` [Example 128, isopropyl N-[4-chloro-2-[[(1S)-3-(methylamino)-2,3-dioxo-1-[[(3S)-2-oxopyrrolidin-3-yl]methyl]propyl]carbamoyl]phenyl]carbamate] here?
Answer: Its IC50 is 7.2 nM.

Question: For `CCOC(=O)Nc1ccc(Cl)cc1C(=O)N[C@@H](C[C@@H]1C[C@@H](C)NC1=O)C(=O)C(=O)NC` [Example 129, ethyl N-[4-chloro-2-[[(1S)-3-(methylamino)-1-[[(3S,5R)-5-methyl-2-oxo-pyrrolidin-3-yl]methyl]-2,3-dioxo-propyl]carbamoyl]phenyl] carbamate], which IC50 is on record?
Answer: The IC50 was 5.9 nM.

Question: How did the IC50 turn out when `CNC(=O)C(=O)[C@H](C[C@@H]1C[C@@H](C)NC1=O)NC(=O)c1cc(C(F)F)ccc1NC(=O)OC` [Example 130, methyl N-[4-(difluoromethyl)-2-[[(1S)-3-(methylamino)-1-[[(3S,5R)-5-methyl-2-oxo-pyrrolidin-3-yl]methyl]-2,3-dioxo-propyl]carbamoyl]phenyl] carbamate] was run?
Answer: The IC50 was 20.7 nM.

Question: For `CNC(=O)C(=O)[C@H](C[C@@H]1C[C@@H](C)NC1=O)NC(=O)c1cc(C#N)ccc1NC(=O)OC1CC1` [Example 131, cyclopropyl N-[4-cyano-2-[[(1S)-3-(methylamino)-1-[[(3S,5R)-5-methyl-2-oxo-pyrrolidin-3-yl]methyl]-2,3-dioxo-propyl]carbamoyl]phenyl] carbamate], which IC50 is on record?
Answer: Its IC50 is 36.5 nM.

Question: How did the IC50 turn out when `CNC(=O)C(=O)[C@H](C[C@@H]1C[C@@H](C)NC1=O)NC(=O)c1cc(Cl)c(F)cc1NC(=O)OC` [Example 132, methyl N-[4-chloro-5-fluoro-2-[[(1S)-3-(methylamino)-1-[[(3S,5R)-5-methyl-2-oxo-pyrrolidin-3-yl]methyl]-2,3-dioxo-propyl]carbamoyl]phenyl] carbamate] was run?
Answer: Its IC50 is 13.8 nM.

Question: With `CNC(=O)C(=O)[C@H](C[C@@H]1C[C@@H](C)NC1=O)NC(=O)c1cc(Cl)cc(F)c1NC(=O)OC` [Example 133, methyl N-[4-chloro-2-fluoro-6-[[(1S)-3-(methylamino)-1-[[(3S,5R)-5-methyl-2-oxo-pyrrolidin-3-yl]methyl]-2,3-dioxo-propyl]carbamoyl]phenyl] carbamate] as the molecule, how does the IC50 read?
Answer: Its IC50 is 9.9 nM.

Question: With `CNC(=O)C(=O)[C@H](C[C@@H]1C[C@@H](C)NC1=O)NC(=O)c1cc(F)c(Cl)cc1NC(=O)OC` [Example 134, methyl N-[5-chloro-4-fluoro-2-[(1S)-3-(methylamino)-1-[[(3S,5R)-5-methyl-2-oxo-pyrrolidin-3-yl]methyl]-2,3-dioxo-propyl]carbamoyl]phenyl] carbamate] as the molecule, how does the IC50 read?
Answer: Its IC50 is 28.2 nM.

Question: Which IC50 does the source give for `CNC(=O)C(=O)[C@H](C[C@@H]1C[C@@H](C)NC1=O)NC(=O)c1cc(Cl)ccc1NC(=O)C1COC1` [Example 135] here?
Answer: Its IC50 is 3 nM.

Question: How did the IC50 turn out when `CNC(=O)C(=O)[C@H](C[C@@H]1CCNC1=O)NC(=O)c1cc(Cl)ccc1NC(=O)OCC1CC1` [Example 136, cyclopropylmethyl N-[4-chloro-2-[[(1S)-3-(methylamino)-2,3-dioxo-1-[[(3S)-2-oxopyrrolidin-3-yl]methyl]propyl]carbamoyl]phenyl]carbamate] was run?
Answer: The IC50 was 3.6 nM.

Question: For `CNC(=O)C(=O)[C@H](C[C@@H]1CCNC1=O)NC(=O)c1cc(Cl)ccc1NC(=O)OC1CCC1` [Example 137, cyclobutyl N-[4-chloro-2-[[(1S)-3-(methylamino)-2,3-dioxo-1-[[(3S)-2-oxopyrrolidin-3-yl]methyl]propyl]carbamoyl]phenyl]carbamate], which IC50 is on record?
Answer: Its IC50 is 5.4 nM.

Question: Which IC50 does the source give for `CNC(=O)C(=O)[C@H](C[C@@H]1CCNC1=O)NC(=O)c1cc(Cl)ccc1NC(=O)OC1(C)CC1` [Example 138, (1-methylcyclopropyl) N-[4-chloro-2-[[(1S)-3-(methylamino)-2,3-dioxo-1-[[(3S)-2-oxopyrrolidin-3-yl]methyl]propyl]carbamoyl]phenyl]carbamate] here?
Answer: The IC50 was 18.6 nM.

Question: With `CCOC(=O)Nc1ccc(Cl)cc1C(=O)N[C@@H](C[C@@H]1CCNC1=O)C(=O)C(=O)NC1CC1` [Example 139] as the molecule, how does the IC50 read?
Answer: Its IC50 is 6.3 nM.

Question: With `CNC(=O)C(=O)[C@H](C[C@@H]1C[C@@H](C)NC1=O)NC(=O)c1cc(Cl)cnc1NC(=O)OC1CC1` [Example 140, cyclopropyl N-[5-chloro-3-[[(1S)-3-(methylamino)-1-[[(3S,5R)-5-methyl-2-oxo-pyrrolidin-3-yl]methyl]-2,3-dioxo-propyl]carbamoyl]-2-pyridyl]carbamate] as the molecule, how does the IC50 read?
Answer: Its IC50 is 9.2 nM.

Question: With `CNC(=O)C(=O)[C@H](C[C@@H]1C[C@@H](C)NC1=O)NC(=O)c1cc(F)c(F)cc1NC(=O)OC1CC1` [Example 141, cyclopropyl N-[4,5-difluoro-2-[[(1S)-3-(methylamino)-1-[[(3S,5R)-5-methyl-2-oxo-pyrrolidin-3-yl]methyl]-2,3-dioxo-propyl]carbamoyl]phenyl] carbamate] as the molecule, how does the IC50 read?
Answer: Its IC50 is 19.8 nM.
